We go through three substances from patent US5480870A, “Tumor growth-inhibiting somatostatin analogues, pharmaceutical compositions containing them and process for preparing same” (Biosignal Kutato-Fejlesztokft, priority 1991, dated 1996).

The test system of experiment [1] is tyrosine kinase (HT 29 cells). In words: Assay of the tyrosine kinase activity, HT 29 cells. Type of experiment: cell-based, human. As for the experimental part:
The tyrosine kinase activity was also determined according to the method of Keri et al. [Tumor Biology 9, 315 (1988)]. The activity of the analogues was characterized on the basis of their inhibitory effect in comparison to the incorporation of ^32 p isotope to untreated cells used as control (Table IV).

For experiment [2], the system named is rat hypophysis (GH release). In words: Assay of the growth hormone (GH): GHRH-elicited GH release, superfusion method. The note with it: percentage of decrease (-) or increase (+) in GH amount released by GHRH. The format is cell-based. As for the experimental part:
The release or inhibition, respectively, of the release of GH were measured on rat hypophysis by using the superfusion method [Vigh et al.: Peptides 5, 241 (1984)]. As control, the GH amount was considered which was released by the GH releasing hormone (GHRH) given in the same dose as the sample. The activity of the somatostatin analogue was expressed as the percentage of decrease or increase, respectively, in the GH amount released by GHRH (Table II).

In experiment [3] the test system is MCF 7: tumour cell line of human breast origin. Briefly: Assay of the inhibition of cell division, MCF 7. The format is cell-based. The protocol:
(§1) The incorporation of [^3 H]-thymidine to tumour cells of various origin and measurement of the cell count were carried out according to the method of Keri et al. [Tumor Biology 9, 315 (1988)]. The biological activity of the analogues was expressed as the percentage of inhibition of the labelled thymidine incorporation or increase in the count of untreated cells used as control (Table III).

The test system of experiment [4] is HT 29: tumour cell line of human colon origin. Briefly: Assay of the inhibition of cell division, HT 29. The format is cell-based. The protocol:
as §1

Take “Ac-Sar-Ala-Tyr-Tyr-Aa-Lys-Val-Phe-Trp-NH2 [Example 7]”: the “Inhibition (%) of tyrosine kinase activity” value is 17% in experiment [1] (HT 29, dose 10 μg) and 23% in experiment [1] (HT 29, dose 30 μg). For the same substance, the “Change of GH release” value in experiment [2] is recorded as -20%. The “Inhibition (%) of cell division” value worked out at 24% in experiment [3] (MCF 7, dose 20 μg) and 28% in experiment [4] (HT 29, dose 10 μg).

As to “D-Phe-Tyr-Tyr-Aa-Lys-Val-Phe-Trp-NH2 [Example 6]”, in experiment [2], the “Change of GH release” value is “+26%”. Also, the “Inhibition (%) of cell division” value in experiment [3] (MCF 7, dose 40 μg) turned out to be 48%.

For the substance “D-Phe-Cys-Tyr-D-Trp-Lys-Val-Cys-Thr-NH2 [Example 2]”, the “Inhibition (%) of tyrosine kinase activity” value is 35% in experiment [1] (HT 29, dose 1 μg, 32P incorporation vs untreated cells) and 22% in experiment [1] (HT 29, dose 10 μg). In addition, in experiment [2], the “Change of GH release” value is -93%. The “Inhibition (%) of cell division” value in experiment [3] (MCF 7, dose 20 μg) is reported as 45%; in experiment [4] (HT 29, dose 20 μg) it was 27%.
